Measured values: the NIST ThermoML archive (doi:10.1021/je100170v)
± gives the expanded uncertainty stated by the source.

Experiments:
[1] = Liquid; for mass density / speed of sound: 101 kPa; for speed of sound: Sing-around technique in a fixed-path interferometer; for viscosity: 101.3 kPa
[2] = xn = mol fraction of the nth substance listed; settings: 101 kPa, Liquid; for speed of sound: Sing-around technique in a fixed-path interferometer

COCCO [2-methoxyethan-1-ol]
[1]
Settings | mass density [kg/m3] | speed of sound [m/s] | viscosity [mPa·s]
298.15 K | 959.5 ± 0.6 | 1339.3 ± 1.3 | 1.543 ± 0.048
308.15 K | 952.1 ± 0.6 | – | 1.256 ± 0.04
318.15 K | 945.8 ± 0.6 | – | 1.047 ± 0.034

COCCO [2-methoxyethan-1-ol] + CCCCCCCCO
[2]
Settings | mass density, 298.15 K [kg/m3] | mass density, 308.15 K [kg/m3] | mass density, 318.15 K [kg/m3] | speed of sound, 298.15 K [m/s] | viscosity, 298.15 K [mPa·s] | viscosity, 308.15 K [mPa·s] | viscosity, 318.15 K [mPa·s]
x2 = 0 | 959.5 ± 0.6 | 952.1 ± 0.6 | 945.8 ± 0.6 | 1339.3 ± 1.3 | 1.543 ± 0.048 | 1.256 ± 0.04 | 1.047 ± 0.034
x2 = 0.061 | 943 ± 0.6 | 935.6 ± 0.6 | 929.5 ± 0.6 | 1334.3 ± 1.3 | 1.677 ± 0.052 | 1.368 ± 0.043 | 1.141 ± 0.037
x2 = 0.1275 | 927.1 ± 0.6 | 920 ± 0.6 | 913.8 ± 0.6 | 1329.3 ± 1.3 | 1.822 ± 0.056 | 1.454 ± 0.045 | 1.209 ± 0.038
x2 = 0.2003 | 912.1 ± 0.7 | 904.9 ± 0.7 | 898.8 ± 0.7 | 1323 ± 1.3 | 1.983 ± 0.06 | 1.582 ± 0.049 | 1.304 ± 0.041
x2 = 0.2804 | 897.4 ± 0.7 | 890.5 ± 0.7 | 884.4 ± 0.7 | 1318 ± 1.3 | 2.145 ± 0.065 | 1.749 ± 0.054 | 1.426 ± 0.045
x2 = 0.3688 | 883.4 ± 0.7 | 876.4 ± 0.7 | 870.5 ± 0.7 | 1314.6 ± 1.3 | 2.408 ± 0.072 | 1.948 ± 0.059 | 1.571 ± 0.049
x2 = 0.4671 | 869.9 ± 0.7 | 862.9 ± 0.7 | 857 ± 0.7 | 1315.4 ± 1.3 | 2.774 ± 0.083 | 2.19 ± 0.066 | 1.781 ± 0.055
x2 = 0.5769 | 857 ± 0.7 | 850 ± 0.7 | 844 ± 0.8 | 1320 ± 1.3 | 3.432 ± 0.1 | 2.67 ± 0.08 | 2.062 ± 0.063
x2 = 0.7004 | 844.6 ± 0.7 | 837.6 ± 0.8 | 831.5 ± 0.8 | 1326.5 ± 1.3 | 4.238 ± 0.12 | 3.19 ± 0.095 | 2.466 ± 0.074
x2 = 0.8402 | 832.8 ± 0.8 | 825.6 ± 0.8 | 819.4 ± 0.8 | 1335.8 ± 1.3 | 5.412 ± 0.15 | 4.012 ± 0.12 | 3.064 ± 0.091

CC(=O)N(C)C [N,N-dimethylethanamide]
[1]
Settings | mass density [kg/m3] | speed of sound [m/s] | viscosity [mPa·s]
298.15 K | 937.2 ± 0.6 | 1458.2 ± 1.4 | 0.937 ± 0.031
308.15 K | 925.8 ± 0.6 | – | 0.841 ± 0.028
318.15 K | 917.1 ± 0.6 | – | 0.763 ± 0.026

CC(=O)N(C)C [N,N-dimethylethanamide] + CCCCCCCCO
[2]
Settings | mass density, 298.15 K [kg/m3] | mass density, 308.15 K [kg/m3] | mass density, 318.15 K [kg/m3] | speed of sound, 298.15 K [m/s] | viscosity, 298.15 K [mPa·s] | viscosity, 308.15 K [mPa·s] | viscosity, 318.15 K [mPa·s]
x2 = 0 | 937.2 ± 0.6 | 925.8 ± 0.6 | 917.1 ± 0.6 | 1458.2 ± 1.4 | 0.937 ± 0.031 | 0.841 ± 0.028 | 0.763 ± 0.026
x2 = 0.0692 | 923.5 ± 0.6 | 912.7 ± 0.6 | 904.4 ± 0.7 | 1433.5 ± 1.4 | 1.072 ± 0.034 | 0.942 ± 0.031 | 0.851 ± 0.028
x2 = 0.1433 | 910.4 ± 0.7 | 900.2 ± 0.7 | 892.2 ± 0.7 | 1412.4 ± 1.4 | 1.246 ± 0.039 | 1.063 ± 0.034 | 0.947 ± 0.031
x2 = 0.2228 | 897.7 ± 0.7 | 888.1 ± 0.7 | 880.4 ± 0.7 | 1390.3 ± 1.3 | 1.418 ± 0.044 | 1.194 ± 0.038 | 1.046 ± 0.034
x2 = 0.3084 | 885.5 ± 0.7 | 876.3 ± 0.7 | 868.9 ± 0.7 | 1372.5 ± 1.3 | 1.702 ± 0.052 | 1.376 ± 0.043 | 1.185 ± 0.038
x2 = 0.4008 | 873.7 ± 0.7 | 864.8 ± 0.7 | 857.8 ± 0.7 | 1360 ± 1.3 | 2.023 ± 0.061 | 1.614 ± 0.05 | 1.361 ± 0.043
x2 = 0.5009 | 862.3 ± 0.7 | 853.9 ± 0.7 | 847 ± 0.7 | 1353.4 ± 1.3 | 2.399 ± 0.072 | 1.893 ± 0.058 | 1.585 ± 0.049
x2 = 0.6095 | 851.4 ± 0.7 | 843.4 ± 0.8 | 836.7 ± 0.8 | 1348.5 ± 1.3 | 3.111 ± 0.092 | 2.406 ± 0.072 | 1.935 ± 0.059
x2 = 0.728 | 840.9 ± 0.8 | 833.1 ± 0.8 | 826.6 ± 0.8 | 1346.4 ± 1.3 | 4.009 ± 0.12 | 2.988 ± 0.089 | 2.35 ± 0.071
x2 = 0.8576 | 830.9 ± 0.8 | 823.4 ± 0.8 | 816.9 ± 0.8 | 1348 ± 1.3 | 5.318 ± 0.15 | 3.849 ± 0.11 | 2.965 ± 0.088

CC(=O)c1ccccc1 [acetophenone]
[1]
Settings | mass density [kg/m3] | speed of sound [m/s] | viscosity [mPa·s]
298.15 K | 1023.1 ± 0.6 | 1296.2 ± 1.3 | 1.653 ± 0.051
308.15 K | 1014.9 ± 0.6 | – | 1.411 ± 0.044
318.15 K | 1007.2 ± 0.5 | – | 1.115 ± 0.036

CC(=O)c1ccccc1 [acetophenone] + CCCCCCCCO
[2]
Settings | mass density, 298.15 K [kg/m3] | mass density, 308.15 K [kg/m3] | mass density, 318.15 K [kg/m3] | speed of sound, 298.15 K [m/s] | viscosity, 298.15 K [mPa·s] | viscosity, 308.15 K [mPa·s] | viscosity, 318.15 K [mPa·s]
x2 = 0 | 1023.1 ± 0.6 | 1014.9 ± 0.6 | 1007.2 ± 0.5 | 1296.2 ± 1.3 | 1.653 ± 0.051 | 1.411 ± 0.044 | 1.115 ± 0.036
x2 = 0.093 | 997.7 ± 0.5 | 989.7 ± 0.5 | 982.4 ± 0.6 | 1278.5 ± 1.3 | 1.713 ± 0.052 | 1.528 ± 0.047 | 1.208 ± 0.039
x2 = 0.1874 | 973.7 ± 0.6 | 966.1 ± 0.6 | 958.9 ± 0.6 | 1266.5 ± 1.3 | 1.831 ± 0.056 | 1.669 ± 0.051 | 1.327 ± 0.042
x2 = 0.2834 | 951.2 ± 0.6 | 943.6 ± 0.6 | 936.6 ± 0.6 | 1263.3 ± 1.3 | 1.994 ± 0.06 | 1.785 ± 0.055 | 1.424 ± 0.045
x2 = 0.3808 | 929.7 ± 0.6 | 922.2 ± 0.6 | 915.5 ± 0.6 | 1264.7 ± 1.3 | 2.205 ± 0.066 | 1.949 ± 0.059 | 1.535 ± 0.048
x2 = 0.4799 | 909.3 ± 0.7 | 902 ± 0.7 | 895.3 ± 0.7 | 1271.8 ± 1.3 | 2.519 ± 0.075 | 2.167 ± 0.065 | 1.671 ± 0.052
x2 = 0.5805 | 889.8 ± 0.7 | 882.5 ± 0.7 | 876 ± 0.7 | 1281.8 ± 1.3 | 2.997 ± 0.089 | 2.4 ± 0.072 | 1.807 ± 0.056
x2 = 0.6828 | 871.3 ± 0.7 | 864.1 ± 0.7 | 857.7 ± 0.7 | 1295.4 ± 1.3 | 3.65 ± 0.11 | 2.799 ± 0.084 | 2.095 ± 0.064
x2 = 0.7868 | 853.8 ± 0.7 | 846.6 ± 0.7 | 840.2 ± 0.8 | 1311.1 ± 1.3 | 4.475 ± 0.13 | 3.249 ± 0.097 | 2.432 ± 0.074
x2 = 0.8925 | 837.1 ± 0.8 | 829.9 ± 0.8 | 823.6 ± 0.8 | 1327.8 ± 1.3 | 5.625 ± 0.16 | 3.931 ± 0.12 | 2.926 ± 0.088

CCCCCCCCO [octan-1-ol]
[1]
Settings | mass density [kg/m3] | speed of sound [m/s] | viscosity [mPa·s]
298.15 K | 821.5 ± 0.8 | 1349.2 ± 1.3 | 7.365 ± 0.2
308.15 K | 814 ± 0.8 | – | 5.251 ± 0.15
318.15 K | 807.7 ± 0.8 | – | 3.865 ± 0.12

CCCCCCCCO [octan-1-ol] + CC(=O)N(C)C
[2], x1 = 1
Settings | mass density [kg/m3] | speed of sound [m/s] | viscosity [mPa·s]
298.15 K | 821.5 ± 0.8 | 1349.2 ± 1.3 | 7.365 ± 0.2
308.15 K | 814 ± 0.8 | – | 5.251 ± 0.15
318.15 K | 807.7 ± 0.8 | – | 3.865 ± 0.12

CCCCCCCCO [octan-1-ol] + CC(=O)c1ccccc1
[2], x1 = 1
Settings | mass density [kg/m3] | speed of sound [m/s] | viscosity [mPa·s]
298.15 K | 821.5 ± 0.8 | 1349.2 ± 1.3 | 7.365 ± 0.2
308.15 K | 814 ± 0.8 | – | 5.251 ± 0.15
318.15 K | 807.7 ± 0.8 | – | 3.865 ± 0.12

CCCCCCCCO [octan-1-ol] + COCCO
[2], x1 = 1
Settings | mass density [kg/m3] | speed of sound [m/s] | viscosity [mPa·s]
298.15 K | 821.5 ± 0.8 | 1349.2 ± 1.3 | 7.365 ± 0.2
308.15 K | 814 ± 0.8 | – | 5.251 ± 0.15
318.15 K | 807.7 ± 0.8 | – | 3.865 ± 0.12
